Experimental data published in US20250134870A1, “PATHWAY MODULATOR, PHARMACEUTICAL COMPOSITION HAVING SAME, USE THEREOF, AND THERAPEUTIC METHOD USING SAME” (Jiangsu Yahong Meditech Co., Ltd., priority 2021, published 2025).
Where two headings read alike, the source gives them in different places.

Assays:
[1] = test system: imiquimod (IMQ)-induced psoriasis; assay: Imiquimod (IMQ)-induced psoriasis in mice: erythema, scales, thickness, total score, AUC (Example 8); format: in vivo, Balb/c mice; design: key to erythema score / scales score / thickness score: 0 = none, 1 = mild, 2 = moderate, 3 = obvious/severe; key to total score of erythema + scales + thickness: sum of three 0-3 scores (erythema + scales + thickening), 0-9
Experimental: All mice were shaved with a pet shaver to get an area of 2×3 cm on the back one day before the start of the experiment.
65 animals were randomly divided into groups according to body weight, and the dosing regimen was as follows.
Imiquimod (IMQ) cream: 62.5 mg of IMQ cream for each mouse in G2 to G7; Dexamethasone (DEX) ointment: 70 mg of ointment for each mouse in G4;
Tofacitinib: Tofacitinib was dissolved in dimethyl sulfoxide to 5 mg/mL, and 50 μL was added to IMQ cream for daily treatment.
Mice in Groups 2 to 7 received daily topical doses of 62.5 mg of IMQ cream on their shaved back from Day 0 to Day 7.
Dosing of the test compounds and reference substance was carried out according to Table 29 for 7 consecutive days.
To assess the severity of inflammation of skin on the back, the skin on the back was scored according to Table 30. Erythema, scales and thickening were scored independently on a scale of 0 to 3, 0, none; 1. mild; 2. moderate; 3. obvious/severe.
The inhibition rate was calculated according to the following formula: Inhibition rate=[AUC (solvent)−AUC (treatment)]/AUC (solvent)×100%. Wherein, solvent referred to the solvent group corresponding to the route of administration.

[2] = test system: 2,4-dinitrobenzenesulfonic acid (DNBS)-induced colitis; assay: DNBS-induced colitis in rats: macroscopic evaluation of colon on Day 7 (colon length, weight, ulcer area, CW/CL, CW/BW, CW/CL/BW); format: in vivo, Wistar rats; settings: for inhibition at 3 mg/kg / inhibition at 10 mg/kg / inhibition at 30 mg/kg: Rattus norvegicus, 168 h; for BW / CW/BW ×100 / Ulcer area / Ulcer length / Ulcer width: mean
Experimental: (3) Colon observation: after the end of the experiment, all animals were anesthetized with Zoletil (intravenous injection, 25 mg/kg) and the abdominal cavity was opened. Blood was collected from the abdominal aorta with EDTA anticoagulation (centrifugation conditions: 4° C., 2,000 g, 10 min). After the animals were sacrificed by bloodletting, the colon (from the cecum to the anus) was dissected and the colon length was measured immediately. The colon was longitudinally incised and rinsed until clean. Then the colon weight and ulcer area were recorded, and the colon was photographed as a whole and divided into three parts, among which two parts were stored at −80° C. after flash freezing with liquid nitrogen for MPO and cytokine detection, and the other part of colon was fixed with 10% neutral buffered formalin. If the ulcer was irregularly shaped, it could be considered as rectangular, and then its length and width were measured for ulcer area assessment. Ulcer area (cm^2)=ulcer length (cm)×ulcer width (cm).

[3] = Day 6, 100 mg/kg topical QD (Nepicastat B)
[4] = Day 6, group Nepicastat A (50 mpk oral)
[5] = Day 6, group Nepicastat B (100 mpk topical)
[6] = Day 7, 50 mg/kg oral QD (Nepicastat A)
[7] = Day 7, 100 mg/kg topical QD (Nepicastat B)
[8] = Day 7, group Nepicastat A (50 mpk oral)
[9] = Day 7, group Nepicastat B (100 mpk topical)
[10] = oral administration 50 mg/kg, Day 5 to Day 7
[11] = G4 Test group 1#, 3 mg/kg PO QD × 7
[12] = G5 Test group 2#, 10 mg/kg PO QD × 7
[13] = G6 Test group 3#, 30 mg/kg PO QD × 7

SMILES: NCc1c[nH]c(=S)n1[C@H]1CCc2c(F)cc(F)cc2C1 [Nepicastat]
- scales score ([1]; Day 6, 50 mg/kg oral QD (Nepicastat A)): 1.9
- erythema score [1, 3]: 1.5
- scales score [1, 3]: 2.4
- thickness score [1, 4]: 1.4
- total score of erythema + scales + thickness [1, 4]: 5
- thickness score [1, 5]: 1.3
- total score of erythema + scales + thickness [1, 5]: 5.2
- erythema score [1, 6]: 1.6
- scales score [1, 6]: 2.1
- erythema score [1, 7]: 1.2
- scales score [1, 7]: 2.1
- thickness score [1, 8]: 1.4
- total score of erythema + scales + thickness [1, 8]: 5.1
- thickness score [1, 9]: 1.4
- total score of erythema + scales + thickness [1, 9]: 4.7
- inhibition at 50 mg/kg ([1]; Mus musculus, 168 h, 50 mpk oral QD × 7 days, vs corresponding solvent group, read-out: inhibition rate (AUC of total clinical score)): 23.6%
- therapeutic effect on clinical symptoms ([1]; PO 50 mg/kg QD × 7 days, vs solvent group and control group): mild therapeutic effect on clinical symptoms
- erythema [1, 10]: inhibited
- thickness [1, 10]: inhibited
- erythema ([1]; topical administration 100 mg/kg, Day 4 to Day 7): inhibited
- inhibition at 3 mg/kg ([2]; 3 mg/kg (Test group 1#), read-out: inhibition rate of CW/BW): 40.2%
- inhibition at 3 mg/kg ([2]; 3 mg/kg (Test group 1#), read-out: inhibition rate of CW/CL): 30.8%
- inhibition at 3 mg/kg ([2]; 3 mg/kg (Test group 1#), read-out: inhibition rate of CW/CL/BW): 33%
- inhibition at 10 mg/kg ([2]; 10 mg/kg (Test group 2#), read-out: inhibition rate of CW/BW): 47.1%
- inhibition at 10 mg/kg ([2]; 10 mg/kg (Test group 2#), read-out: inhibition rate of CW/CL): 43.8%
- inhibition at 10 mg/kg ([2]; 10 mg/kg (Test group 2#), read-out: inhibition rate of CW/CL/BW): 45%
- inhibition at 30 mg/kg ([2]; 30 mg/kg (Test group 3#), read-out: inhibition rate of CW/BW): 39.9%
- inhibition at 30 mg/kg ([2]; 30 mg/kg (Test group 3#), read-out: inhibition rate of CW/CL): 26.7%
- inhibition at 30 mg/kg ([2]; 30 mg/kg (Test group 3#), read-out: inhibition rate of CW/CL/BW): 27.1%
- inhibition at 3 mg/kg ([2]; G4 Test group 1#, 3 mg/kg PO QD × 7, read-out: IR1 (inhibition rate 1, CW/CL/BW)): 33%
- inhibition at 3 mg/kg ([2]; G4 Test group 1#, 3 mg/kg PO QD × 7, read-out: IR2 (inhibition rate 2, CW/BW)): 40.2%
- inhibition at 3 mg/kg ([2]; G4 Test group 1#, 3 mg/kg PO QD × 7, read-out: IR3 (inhibition rate 3, CW/CL)): 30.8%
- inhibition at 10 mg/kg ([2]; G5 Test group 2#, 10 mg/kg PO QD × 7, read-out: IR1 (inhibition rate 1, CW/CL/BW)): 45%
- inhibition at 10 mg/kg ([2]; G5 Test group 2#, 10 mg/kg PO QD × 7, read-out: IR2 (inhibition rate 2, CW/BW)): 47.1%
- inhibition at 10 mg/kg ([2]; G5 Test group 2#, 10 mg/kg PO QD × 7, read-out: IR3 (inhibition rate 3, CW/CL)): 43.8%
- inhibition at 30 mg/kg ([2]; G6 Test group 3#, 30 mg/kg PO QD × 7, read-out: IR1 (inhibition rate 1, CW/CL/BW)): 27.1%
- inhibition at 30 mg/kg ([2]; G6 Test group 3#, 30 mg/kg PO QD × 7, read-out: IR2 (inhibition rate 2, CW/BW)): 39.9%
- inhibition at 30 mg/kg ([2]; G6 Test group 3#, 30 mg/kg PO QD × 7, read-out: IR3 (inhibition rate 3, CW/CL)): 26.7%
- BW [2, 11]: 168.65 g
- CW/BW ×100 [2, 11]: 1.05
- Ulcer area [2, 11]: 1.36 cm^2
- Ulcer length [2, 11]: 1.08 cm
- Ulcer width [2, 11]: 0.87 cm
- BW [2, 12]: 169.54 g
- CW/BW ×100 [2, 12]: 1.01
- Ulcer area [2, 12]: 1.17 cm^2
- Ulcer length [2, 12]: 0.97 cm
- Ulcer width [2, 12]: 0.73 cm
- BW [2, 13]: 164.62 g
- CW/BW ×100 [2, 13]: 1.05
- Ulcer area [2, 13]: 1.35 cm^2
- Ulcer length [2, 13]: 1.09 cm
- Ulcer width [2, 13]: 0.95 cm
